Legend:
Assay in all cases: Test F preemergence/postemergence greenhouse plant response rating 0 to 100
[1] = tested on: lambsquarters; assay type: in vivo, Chenopodium album; details: POSTEMERGENCE, 0 to 100 scale
Procedure, shortened: (§1)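 Pre: sandy loam, spray ~1 day after seeding. Post: 1–4 leaf plants, 60:40 sandy loam/potting mix; blackgrass treated at two growth stages. Formulated in non-phytotoxic solvent. Visual rating vs untreated controls at ~21–28 d.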

[2] = tested on: field violet; assay type: in vivo, Viola arvensis; details: POSTEMERGENCE, 0 to 100 scale
Procedure, shortened: as §1

[3] = tested on: wild radish; assay type: in vivo, Raphanus raphanistrum; details: POSTEMERGENCE, 0 to 100 scale
Procedure, shortened: as §1

[4] = tested on: spring wheat; assay type: in vivo, Triticum aestivum cv. ‘ERA’; details: POSTEMERGENCE, 0 to 100 scale
Procedure, shortened: as §1

[5] = tested on: winter barley; assay type: in vivo, Hordeum vulgare cv. ‘Igri’; details: POSTEMERGENCE, 0 to 100 scale
Procedure, shortened: as §1

[6] = tested on: wild oat; assay type: in vivo, Avena fatua; details: POSTEMERGENCE, 0 to 100 scale; for Wild oat (1) plant response rating: stage (1) two to three leaves; for Wild oat (2) plant response rating: stage (2) approximately four leaves or initial tillering
Procedure, shortened: as §1

[7] = tested on: green foxtail; assay type: in vivo, Setaria viridis; details: POSTEMERGENCE, 0 to 100 scale
Procedure, shortened: as §1

[8] = tested on: speedwell; assay type: in vivo, Veronica persica; details: POSTEMERGENCE, 0 to 100 scale
Procedure, shortened: as §1

[9] = tested on: blackgrass; assay type: in vivo, Alopecurus myosuroides; details: POSTEMERGENCE, 0 to 100 scale; for Blackgrass (1) plant response rating: stage (1) two to three leaves; for Blackgrass (2) plant response rating: stage (2) approximately four leaves or initial tillering
Procedure, shortened: as §1

[10] = tested on: galium; assay type: in vivo, Galium aparine; details: POSTEMERGENCE, 0 to 100 scale; for Galium (1) plant response rating: stage (1) two to three leaves; for Galium (2) plant response rating: stage (2) approximately four leaves or initial tillering
Procedure, shortened: as §1

[11] = tested on: ryegrass; assay type: in vivo, Lolium multiflorum; details: POSTEMERGENCE, 0 to 100 scale
Procedure, shortened: as §1

[12] = tested on: chickweed; assay type: in vivo, Stellaria media; details: POSTEMERGENCE, 0 to 100 scale
Procedure, shortened: as §1

[13] = tested on: winter wheat; assay type: in vivo, Triticum aestivum cv. ‘Talent’; details: POSTEMERGENCE, 0 to 100 scale
Procedure, shortened: as §1

C#CC(C)N1C(=O)COc2cc(F)c(-c3nn4c(c3Cl)CCCC4)cc21 (stereo not shown) [Compound 50]
Lambsquarters plant response rating ([1]; Rate 16 g/ha): 30
Lambsquarters plant response rating ([1]; Rate 32 g/ha): 50
Lambsquarters plant response rating ([1]; Rate 64 g/ha): 100
Lambsquarters plant response rating ([1]; Rate 125 g/ha): 100
Field violet plant response rating ([2]; Rate 16 g/ha): 100
Field violet plant response rating ([2]; Rate 32 g/ha): 100
Field violet plant response rating ([2]; Rate 64 g/ha): 100
Field violet plant response rating ([2]; Rate 125 g/ha): 100
Wild radish plant response rating ([3]; Rate 16 g/ha): 50
Wild radish plant response rating ([3]; Rate 32 g/ha): 50
Wild radish plant response rating ([3]; Rate 64 g/ha): 55
Wild radish plant response rating ([3]; Rate 125 g/ha): 70
Wheat (Spring) plant response rating ([4]; Rate 16 g/ha): 0
Wheat (Spring) plant response rating ([4]; Rate 32 g/ha): 0
Wheat (Spring) plant response rating ([4]; Rate 64 g/ha): 0
Wheat (Spring) plant response rating ([4]; Rate 125 g/ha): 10
Winter Barley plant response rating ([5]; Rate 16 g/ha): 0
Winter Barley plant response rating ([5]; Rate 32 g/ha): 0
Winter Barley plant response rating ([5]; Rate 64 g/ha): 0
Winter Barley plant response rating ([5]; Rate 125 g/ha): 50
Wild oat (1) plant response rating ([6]; Rate 16 g/ha): 0
Wild oat (2) plant response rating ([6]; Rate 16 g/ha): 0
Wild oat (1) plant response rating ([6]; Rate 32 g/ha): 0
Wild oat (2) plant response rating ([6]; Rate 32 g/ha): 0
Wild oat (1) plant response rating ([6]; Rate 64 g/ha): 0
Wild oat (2) plant response rating ([6]; Rate 64 g/ha): 0
Wild oat (1) plant response rating ([6]; Rate 125 g/ha): 0
Wild oat (2) plant response rating ([6]; Rate 125 g/ha): 0
Green foxtail plant response rating ([7]; Rate 16 g/ha): 0
Green foxtail plant response rating ([7]; Rate 32 g/ha): 0
Green foxtail plant response rating ([7]; Rate 64 g/ha): 50
Green foxtail plant response rating ([7]; Rate 125 g/ha): 50
Persn Speedwell plant response rating ([8]; Rate 16 g/ha): 100
Persn Speedwell plant response rating ([8]; Rate 32 g/ha): 100
Persn Speedwell plant response rating ([8]; Rate 64 g/ha): 100
Persn Speedwell plant response rating ([8]; Rate 125 g/ha): 100
Blackgrass (1) plant response rating ([9]; Rate 16 g/ha): 0
Blackgrass (2) plant response rating ([9]; Rate 16 g/ha): 0
Blackgrass (1) plant response rating ([9]; Rate 32 g/ha): 0
Blackgrass (2) plant response rating ([9]; Rate 32 g/ha): 0
Blackgrass (1) plant response rating ([9]; Rate 64 g/ha): 0
Blackgrass (2) plant response rating ([9]; Rate 64 g/ha): 0
Blackgrass (1) plant response rating ([9]; Rate 125 g/ha): 40
Blackgrass (2) plant response rating ([9]; Rate 125 g/ha): 20
Galium (1) plant response rating ([10]; Rate 16 g/ha): 100
Galium (2) plant response rating ([10]; Rate 16 g/ha): 100
Galium (1) plant response rating ([10]; Rate 32 g/ha): 100
Galium (2) plant response rating ([10]; Rate 32 g/ha): 100
Galium (1) plant response rating ([10]; Rate 64 g/ha): 100
Galium (2) plant response rating ([10]; Rate 64 g/ha): 100
Galium (1) plant response rating ([10]; Rate 125 g/ha): 100
Galium (2) plant response rating ([10]; Rate 125 g/ha): 100
Ryegrass plant response rating ([11]; Rate 16 g/ha): 0
Ryegrass plant response rating ([11]; Rate 32 g/ha): 0
Ryegrass plant response rating ([11]; Rate 64 g/ha): 0
Ryegrass plant response rating ([11]; Rate 125 g/ha): 10
Chickweed plant response rating ([12]; Rate 16 g/ha): 70
Chickweed plant response rating ([12]; Rate 32 g/ha): 100
Chickweed plant response rating ([12]; Rate 64 g/ha): 100
Chickweed plant response rating ([12]; Rate 125 g/ha): 100
Wheat (Winter) plant response rating ([13]; Rate 16 g/ha): 0
Wheat (Winter) plant response rating ([13]; Rate 32 g/ha): 0
Wheat (Winter) plant response rating ([13]; Rate 64 g/ha): 0
Wheat (Winter) plant response rating ([13]; Rate 125 g/ha): 0

Reference: US6358885B1, “Substituted phenylheterocyclic herbicides” (Mississippi State University, priority 1992, dated 2002)
